Source: ChEMBL document CHEMBL3044715, “Synthesis, spectral studies and biological evaluation of a novel series of 2-substituted-5,6-diarylsubstituted imidazo(2,1-b)-1,3,4-thiadiazole derivatives as possible anti-tubercular agents” (Med Chem Res, 2012)
≈ marks a conversion by molar mass, not a printed value. Calls of active or inactive are those of the source. The calls are words filed in the database; no cut-off is given here.

Legend:
[1] = test system: Mycobacterium tuberculosis; assay: Antimycobacterial activity against Mycobacterium tuberculosis H37Rv ATCC 27294 after 5 days by Alamar blue assay; format: functional
Vero = assay: Cytotoxicity against Chlorocebus aethiops (African green monkey) Vero cells after 72 hr by MTT assay; format: cell-based; details: Chlorocebus sabaeus

COc1ccc(-c2c(-c3ccc(SC)cc3)nc3sc(-c4ccc(F)cc4)nn23)cc1
MIC ([1]; H37Rv ATCC 27294, 120 h): 10 µg/mL (≈ 22.3 µM) | IC50 (Vero): 116 µM

CSc1ccc(-c2nc3sc(S(N)(=O)=O)nn3c2-c2ccccc2)cc1
MIC ([1]; H37Rv ATCC 27294, 120 h): 2.5 µg/mL (≈ 6.21 µM) | IC50 (Vero): 192 µM

COc1ccc(-c2nc3sc(S(N)(=O)=O)nn3c2-c2ccc(OC)cc2)cc1
MIC ([1]; H37Rv ATCC 27294, 120 h): 1.25 µg/mL (≈ 3 µM) | IC50 (Vero): 247 µM

COc1ccc(-c2c(-c3ccccc3)nc3sc(S(N)(=O)=O)nn23)cc1
MIC ([1]; H37Rv ATCC 27294, 120 h): 5 µg/mL (≈ 12.9 µM) | IC50 (Vero): 204 µM

COc1ccc(-c2c(-c3ccc(SC)cc3)nc3sc(S(N)(=O)=O)nn23)cc1
MIC ([1]; H37Rv ATCC 27294, 120 h): 2.5 µg/mL (≈ 5.78 µM) | IC50 (Vero): 213 µM

COc1ccc(-c2c(-c3ccccc3)nc3sc(-c4ccc(F)cc4)nn23)cc1
MIC [1]: inactive

COc1ccc(-c2nn3c(-c4ccc(OC)cc4)c(-c4ccc(SC)cc4)nc3s2)cc1
MIC ([1]; H37Rv ATCC 27294, 120 h): 10 µg/mL (≈ 21.8 µM) | IC50 (Vero): 120 µM

COc1ccc(-c2nn3c(-c4ccccc4)c(-c4ccc(C)cc4)nc3s2)cc1
MIC [1]: inactive

Cc1ccc(-c2nc3sc(S(N)(=O)=O)nn3c2-c2ccccc2)cc1
MIC ([1]; H37Rv ATCC 27294, 120 h): 10 µg/mL (≈ 27 µM) | IC50 (Vero): 168 µM

CSc1ccc(-c2nc3sc(C(F)(F)F)nn3c2-c2ccccc2)cc1
MIC ([1]; H37Rv ATCC 27294, 120 h): 10 µg/mL (≈ 25.5 µM) | IC50 (Vero): 140 µM

NNC(=O)c1ccncc1 [ISONIAZID]
MIC ([1]; H37Rv ATCC 27294, 120 h): 0.25 µg/mL (≈ 1.82 µM) | IC50 (Vero): > 450 µM

COc1ccc(-c2c(-c3ccccc3)nc3sc(C(F)(F)F)nn23)cc1
MIC [1]: inactive

Cc1ccc(-c2nc3sc(C(F)(F)F)nn3c2-c2ccccc2)cc1
MIC [1]: inactive

COc1ccc(-c2nc3sc(-c4ccc(F)cc4)nn3c2-c2ccc(OC)cc2)cc1
MIC ([1]; H37Rv ATCC 27294, 120 h): 5 µg/mL (≈ 11.6 µM) | IC50 (Vero): 163 µM

COc1ccc(-c2nn3c(-c4ccc(OC)cc4)c(-c4ccc(OC)cc4)nc3s2)cc1
MIC ([1]; H37Rv ATCC 27294, 120 h): 5 µg/mL (≈ 11.3 µM) | IC50 (Vero): 162 µM

COc1ccc(-c2nc3sc(C(F)(F)F)nn3c2-c2ccc(OC)cc2)cc1
MIC ([1]; H37Rv ATCC 27294, 120 h): 1.25 µg/mL (≈ 3.08 µM) | IC50 (Vero): 147 µM

COc1c(N2CCNC(C)C2)c(F)cc2c(=O)c(C(=O)O)cn(C3CC3)c12 (stereo not given) [GATIFLOXACIN]
MIC ([1]; H37Rv ATCC 27294, 120 h): 1 µg/mL (≈ 2.66 µM) | IC50 (Vero): > 550 µM

COc1ccc(-c2c(-c3ccc(SC)cc3)nc3sc(C(F)(F)F)nn23)cc1
MIC ([1]; H37Rv ATCC 27294, 120 h): 5 µg/mL (≈ 11.9 µM) | IC50 (Vero): 123 µM

CSc1ccc(-c2nc3sc(-c4ccc(F)cc4)nn3c2-c2ccccc2)cc1
MIC [1]: inactive

COc1ccc(-c2nn3c(-c4ccccc4)c(-c4ccc(SC)cc4)nc3s2)cc1
MIC ([1]; H37Rv ATCC 27294, 120 h): 10 µg/mL (≈ 23.3 µM) | IC50 (Vero): 135 µM
